What was measured:
[1] = Plasma stability assay, mouse plasma; format: in vitro ADME; conditions: 37°C
Method: (§1) In order to determine the stability of selected compounds of the invention in human and mouse plasma, a plasma stability assay was carried out. Such plasma stability assay measures degradation of compounds of the present invention in blood plasma. This is an important characteristic of a compound as compounds, with the exception of pro-drugs, which rapidly degrade in plasma, generally show poor in vivo efficacy. […] The stability is sufficient for the diagnostic, therapeutic and theragnostic use of these compounds according to the present invention.
(§2) The plasma stability samples were prepared by spiking 50 µl plasma aliquots (all sodium citrate 3.8%) with 1 µl of a 0.5 mM compound stock solution in DMSO. After vortexing, the samples were incubated in a Thermomixer at 37°C for 4 or 6 hours. After incubation the samples were stored on ice until further treatment. All samples were prepared in duplicates.
A suitable internal standard was added to each sample (1 µl of a 0.5 mM stock solution in DMSO). Protein precipitation was performed using two different methods depending on the compound conditions as indicated in Table 8. • A) 250 µl of acetonitrile containing 1% trifluoroacetic acid was added. […] After incubation at room temperature for 30 min the precipitate was separated by centrifugation. To 100 µl of the supernatant 10 µl of 1% formic acid was added followed by further incubation at 60°C for 10 min to complete the formation of the zinc chelate, if the compound contains a free DOTA moiety.
The determination of the analyte in the clean sample solutions was performed on an Agilent 1290 UHPLC system coupled to an Agilent 6530 Q-TOF mass spectrometer. The chromatographic separation was carried out on a Phenomenex BioZen XB-C18 HPLC column (50 x 2 mm, 1.7 µm particle size) with gradient elution using a mixture of 0.1% formic acid in water as eluent A and acetonitrile as eluent B (2% B to 41% in 7 min, 800 µl/min, 40°C). Mass spectrometric detection was performed in positive ion ESI mode by scanning the mass range from m/z 50 to 3000 with a sampling rate of 2 / sec.
From the mass spectrometric raw data the ion currents for the double or triple charged monoisotopic signal was extracted for both, the compound and the internal standard.
(§3) Quantitation was performed by external matrix calibration with internal standard using the integrated analyte signals.
The result is stated as "% intact compound remaining after 4 h or 6 h" and means that from the amount of material at the start of the experiment the stated percentage is detected as unchanged material at the end of the experiment by LC-MS quantification. Since all compounds are more than 50% intact after at least 4 h they are considered as stable enough for diagnostic and therapeutic applications. Table 8: Results of the plasma stability assay

[2] = molecular target: T1, HEK-FAP cells (Homo sapiens, UniProt Q12884); assay: LigandTracer assay with 111In-labeled compounds; format: binding; conditions: 111In-labeled compound; for kon: association rate, read-out: ka
T1 construct: expressed in transfected cells; host or cells: HEK293
T1 sequence (Q12884 1-760): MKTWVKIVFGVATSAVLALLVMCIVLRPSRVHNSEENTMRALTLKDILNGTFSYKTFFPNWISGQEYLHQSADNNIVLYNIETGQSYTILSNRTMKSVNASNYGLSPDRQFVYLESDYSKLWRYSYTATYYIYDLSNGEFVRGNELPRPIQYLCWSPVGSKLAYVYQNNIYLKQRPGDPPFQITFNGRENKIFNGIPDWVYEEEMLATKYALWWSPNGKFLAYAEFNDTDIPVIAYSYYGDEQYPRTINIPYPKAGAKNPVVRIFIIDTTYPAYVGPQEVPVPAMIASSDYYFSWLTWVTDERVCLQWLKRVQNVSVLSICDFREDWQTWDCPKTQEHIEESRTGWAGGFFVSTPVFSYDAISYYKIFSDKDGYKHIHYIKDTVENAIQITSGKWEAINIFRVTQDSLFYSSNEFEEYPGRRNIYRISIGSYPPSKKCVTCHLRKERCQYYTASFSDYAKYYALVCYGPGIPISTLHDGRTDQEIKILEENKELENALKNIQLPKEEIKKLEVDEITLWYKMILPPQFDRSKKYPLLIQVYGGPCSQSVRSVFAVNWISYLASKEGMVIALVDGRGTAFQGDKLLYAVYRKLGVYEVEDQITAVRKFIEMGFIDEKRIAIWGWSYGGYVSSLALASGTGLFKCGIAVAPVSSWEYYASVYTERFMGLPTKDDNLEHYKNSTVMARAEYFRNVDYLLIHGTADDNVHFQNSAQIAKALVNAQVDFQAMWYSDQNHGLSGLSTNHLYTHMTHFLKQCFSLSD
Method: HEK293 cells (human embryonic kidney cells) were engineered to express the human FAP. […] Cell concentrations were adjusted to 3 x 10^5 mL^-1, and 3.000 µL of the suspension was dispensed into a poly-lysine-coated, clear cell dish (10cm). Approximately 24 hours after re-seeding, the medium was replaced by assay medium (Ham's medium with 20 mM HEPES) containing 1 % FCS. The dish was placed in the LigandTracer® device and a baseline measurement was obtained using the LigandTracer® Control software (version 2.4). […] To determine the dissociation rate (kd) the cells were washed and subsequently incubated with fresh assay medium for several hours. […] Table 14 Results of the LigandTracer® assay

[3] = Plasma stability assay, human plasma; format: in vitro ADME; conditions: 37°C, 6 h
Method: as §1, §2
A suitable internal standard was added to each sample (1 µl of a 0.5 mM stock solution in DMSO). […]
as §3
The result is stated as "% intact compound remaining after 4 h or 6 h" and means that from the amount of material at the start of the experiment the stated percentage is detected as unchanged material at the end of the experiment by LC-MS quantification. […]

SMILES	% intact compound remaining after incubation ([1]; 4 h)	HL [2]	pKD [2]	kon [2]	% intact compound remaining after incubation [3]	% intact compound remaining after incubation ([1]; 6 h)
CS(=O)(=O)c1cccc(-c2ccc3nccc(C(=O)NCC(=O)N4CC(F)(F)C[C@H]4C#N)c3c2)c1 [Compound 3BP-3126]	78% (4 h)					
CS(=O)(=O)c1cccc(-c2ccc3c(C(=O)NCC(=O)N4CC(F)(F)C[C@H]4C#N)ccnc3c2)c1 [Compound 3BP-3127]	> 95% (4 h)					
CS(=O)(=O)c1ccc(-c2ccc3c(C(=O)NCC(=O)N4CCC[C@H]4C#N)ccnc3c2)cc1 [Compound 3BP-3128]	> 95% (4 h)					
O=C(NCC(=O)N1CCC[C@H]1C(=O)c1nc2ccccc2o1)c1ccnc2c1=CCCC=2 [Compound 3BP-3205]	> 95% (4 h)					
O=C(NCC(=O)N1CCC[C@H]1C(=O)c1ncco1)c1ccnc2ccccc12 [Compound 3BP-3208]	92% (4 h)					
O=C(O)CN1CCN(CC(=O)O)CCN(CC(=O)N2CCN(CCNC(=O)c3ccc(-c4ccc5nccc(C(=O)NCC(=O)N6CCC[C@H]6C(=O)c6nc7ccccc7o6)c5c4)cc3)CC2)CCN(CC(=O)O)CC1 [Compound 3BP-4663]		1477 ± 2013 min	9.8 ± 0.7	150000 M⁻¹ s⁻¹	89% (6 h)	92% (6 h)
O=C(O)CN1CCN(CC(=O)O)CCN(CC(=O)N2CCN(CCNC(=O)c3cccc(-c4ccc5nccc(C(=O)NCC(=O)N6CCC[C@H]6C(=O)c6nc7ccccc7o6)c5c4)c3)CC2)CCN(CC(=O)O)CC1 [Compound 3BP-4664]		1030 ± 1439 min	9.3 ± 0.7	160000 M⁻¹ s⁻¹		
O=C(O)CN1CCN(CC(=O)O)CCN(CC(=O)N2CCN(CCNC(=O)c3ccc(-c4ccc5c(C(=O)NCC(=O)N6CCC[C@H]6C(=O)c6nc7ccccc7o6)ccnc5c4)cc3)CC2)CCN(CC(=O)O)CC1 [Compound 3BP-4665]		22 ± 16 min	8.8 ± 0.2	220000 M⁻¹ s⁻¹		
O=C(O)CN1CCN(CC(=O)O)CCN(CC(=O)N2CCN(CCNC(=O)c3cccc(-c4ccc5c(C(=O)NCC(=O)N6CCC[C@H]6C(=O)c6nc7ccccc7o6)ccnc5c4)c3)CC2)CCN(CC(=O)O)CC1 [Compound 3BP-4694]		3946 ± 1189 min	10.3 ± 0.1	57000 M⁻¹ s⁻¹		90% (6 h)
O=C(O)CN1CCN(CC(=O)O)CCN(CC(=O)N2CCN(CCCOc3ccc4nccc(C(=O)NCC(=O)N5CCC[C@H]5C(=O)c5nc6ccccc6o5)c4c3)CC2)CCN(CC(=O)O)CC1 [Compound 3BP-4808]		20 ± 5 min	8.2 ± 0.0	94000 M⁻¹ s⁻¹		
O=C(O)CN1CCN(CC(=O)O)CCN(CC(=O)N2CCN(CCCOc3ccc4nccc(C(=O)NCC(=O)N5C[C@@H](F)C[C@H]5C(=O)c5nc6ccccc6o5)c4c3)CC2)CCN(CC(=O)O)CC1 [Compound 3BP-4809]		18 ± 1 min	8.2 ± 0.1			
O=C(O)CN1CCN(CC(=O)O)CCN(CC(=O)N2CCN(CCNC(=O)c3ccc(-c4ccc5nccc(C(=O)NCC(=O)N6C[C@@H](F)C[C@H]6C(=O)c6nc7ccccc7o6)c5c4)cc3)CC2)CCN(CC(=O)O)CC1 [Compound 3BP-4810]		38 ± 4 min	8.5 ± 0.1			
O=C(O)CN1CCN(CC(=O)O)CCN(CC(=O)N2CCN(CCNC(=O)c3ccc(-c4ccc5nccc(C(=O)NCC(=O)N6CCC[C@H]6C(=O)c6nc7ccccc7o6)c5c4)cn3)CC2)CCN(CC(=O)O)CC1 [Compound 3BP-4811]		27 ± 12 min	8.3 ± 0.2			

— patent EP4122499A1, “FIBROBLAST ACTIVATION PROTEIN INHIBITORS AND USE THEREOF” (3B Pharmaceuticals GmbH, priority 2021, dated 2023)
